Tests used:
[1] = Liquid; for mass density / speed of sound: 101 kPa; for speed of sound: Sing-around technique in a fixed-path interferometer; for viscosity: 101.3 kPa
[2] = xn = mol fraction of the nth substance listed; settings: 101 kPa, Liquid; for speed of sound: Sing-around technique in a fixed-path interferometer

COCCO [2-methoxyethan-1-ol]
[1]
Settings	mass density [kg/m3]	speed of sound [m/s]	viscosity [mPa·s]
298.15 K	959.5	1339.3	1.543
308.15 K	952.1	–	1.256
318.15 K	945.8	–	1.047

COCCO [2-methoxyethan-1-ol] + CCCCCCCCO
[2]
Settings	mass density, 298.15 K [kg/m3]	mass density, 308.15 K [kg/m3]	mass density, 318.15 K [kg/m3]	speed of sound, 298.15 K [m/s]	viscosity, 298.15 K [mPa·s]	viscosity, 308.15 K [mPa·s]	viscosity, 318.15 K [mPa·s]
x2 = 0	959.5	952.1	945.8	1339.3	1.543	1.256	1.047
x2 = 0.061	943	935.6	929.5	1334.3	1.677	1.368	1.141
x2 = 0.1275	927.1	920	913.8	1329.3	1.822	1.454	1.209
x2 = 0.2003	912.1	904.9	898.8	1323	1.983	1.582	1.304
x2 = 0.2804	897.4	890.5	884.4	1318	2.145	1.749	1.426
x2 = 0.3688	883.4	876.4	870.5	1314.6	2.408	1.948	1.571
x2 = 0.4671	869.9	862.9	857	1315.4	2.774	2.19	1.781
x2 = 0.5769	857	850	844	1320	3.432	2.67	2.062
x2 = 0.7004	844.6	837.6	831.5	1326.5	4.238	3.19	2.466
x2 = 0.8402	832.8	825.6	819.4	1335.8	5.412	4.012	3.064

CC(=O)N(C)C [N,N-dimethylethanamide]
[1]
Settings	mass density [kg/m3]	speed of sound [m/s]	viscosity [mPa·s]
298.15 K	937.2	1458.2	0.937
308.15 K	925.8	–	0.841
318.15 K	917.1	–	0.763

CC(=O)N(C)C [N,N-dimethylethanamide] + CCCCCCCCO
[2]
Settings	mass density, 298.15 K [kg/m3]	mass density, 308.15 K [kg/m3]	mass density, 318.15 K [kg/m3]	speed of sound, 298.15 K [m/s]	viscosity, 298.15 K [mPa·s]	viscosity, 308.15 K [mPa·s]	viscosity, 318.15 K [mPa·s]
x2 = 0	937.2	925.8	917.1	1458.2	0.937	0.841	0.763
x2 = 0.0692	923.5	912.7	904.4	1433.5	1.072	0.942	0.851
x2 = 0.1433	910.4	900.2	892.2	1412.4	1.246	1.063	0.947
x2 = 0.2228	897.7	888.1	880.4	1390.3	1.418	1.194	1.046
x2 = 0.3084	885.5	876.3	868.9	1372.5	1.702	1.376	1.185
x2 = 0.4008	873.7	864.8	857.8	1360	2.023	1.614	1.361
x2 = 0.5009	862.3	853.9	847	1353.4	2.399	1.893	1.585
x2 = 0.6095	851.4	843.4	836.7	1348.5	3.111	2.406	1.935
x2 = 0.728	840.9	833.1	826.6	1346.4	4.009	2.988	2.35
x2 = 0.8576	830.9	823.4	816.9	1348	5.318	3.849	2.965

CC(=O)c1ccccc1 [acetophenone]
[1]
Settings	mass density [kg/m3]	speed of sound [m/s]	viscosity [mPa·s]
298.15 K	1023.1	1296.2	1.653
308.15 K	1014.9	–	1.411
318.15 K	1007.2	–	1.115

CC(=O)c1ccccc1 [acetophenone] + CCCCCCCCO
[2]
Settings	mass density, 298.15 K [kg/m3]	mass density, 308.15 K [kg/m3]	mass density, 318.15 K [kg/m3]	speed of sound, 298.15 K [m/s]	viscosity, 298.15 K [mPa·s]	viscosity, 308.15 K [mPa·s]	viscosity, 318.15 K [mPa·s]
x2 = 0	1023.1	1014.9	1007.2	1296.2	1.653	1.411	1.115
x2 = 0.093	997.7	989.7	982.4	1278.5	1.713	1.528	1.208
x2 = 0.1874	973.7	966.1	958.9	1266.5	1.831	1.669	1.327
x2 = 0.2834	951.2	943.6	936.6	1263.3	1.994	1.785	1.424
x2 = 0.3808	929.7	922.2	915.5	1264.7	2.205	1.949	1.535
x2 = 0.4799	909.3	902	895.3	1271.8	2.519	2.167	1.671
x2 = 0.5805	889.8	882.5	876	1281.8	2.997	2.4	1.807
x2 = 0.6828	871.3	864.1	857.7	1295.4	3.65	2.799	2.095
x2 = 0.7868	853.8	846.6	840.2	1311.1	4.475	3.249	2.432
x2 = 0.8925	837.1	829.9	823.6	1327.8	5.625	3.931	2.926

CCCCCCCCO [octan-1-ol]
[1]
Settings	mass density [kg/m3]	speed of sound [m/s]	viscosity [mPa·s]
298.15 K	821.5	1349.2	7.365
308.15 K	814	–	5.251
318.15 K	807.7	–	3.865

CCCCCCCCO [octan-1-ol] + CC(=O)N(C)C
[2], x1 = 1
Settings	mass density [kg/m3]	speed of sound [m/s]	viscosity [mPa·s]
298.15 K	821.5	1349.2	7.365
308.15 K	814	–	5.251
318.15 K	807.7	–	3.865

CCCCCCCCO [octan-1-ol] + CC(=O)c1ccccc1
[2], x1 = 1
Settings	mass density [kg/m3]	speed of sound [m/s]	viscosity [mPa·s]
298.15 K	821.5	1349.2	7.365
308.15 K	814	–	5.251
318.15 K	807.7	–	3.865

CCCCCCCCO [octan-1-ol] + COCCO
[2], x1 = 1
Settings	mass density [kg/m3]	speed of sound [m/s]	viscosity [mPa·s]
298.15 K	821.5	1349.2	7.365
308.15 K	814	–	5.251
318.15 K	807.7	–	3.865

From the NIST ThermoML archive (doi:10.1021/je100170v)
